Test system: MDA-MB-231 multicell spheroids, viability (%T/C)
Assay: Anticancer human tumor MDA-MB-231 cell line growth inhibition [IpAb];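 further: viability read after seven days of drug exposure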;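 on viability, T/C: 100% = DMSO vehicle control viability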
Conditions: for IC50: curve of first compound; for viability, T/C: stronger effect = lower value
How it was run: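 Combinations with ipatasertib or abemaciclib were tested on tumour spheroids holding HUVEC (25%) and MSC (15%) alongside 60% malignant cells. Top concentration was at or near clinical Cmax (10 microM if undefined), descending in half-log steps.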

[1] = second compound 0.01 µM, first compound 0.0316 µM
[2] = second compound 0.01 µM, first compound 0.1 µM
[3] = second compound 0.01 µM, first compound 0.316 µM
[4] = second compound 0.01 µM, first compound 1 µM
[5] = second compound 0.01 µM, first compound 3.16 µM
[6] = second compound 0.01 µM, first compound 10 µM
[7] = second compound 0.0316 µM, first compound 0.0316 µM
[8] = second compound 0.0316 µM, first compound 0.1 µM
[9] = second compound 0.0316 µM, first compound 0.316 µM
[10] = second compound 0.0316 µM, first compound 1 µM
[11] = second compound 0.0316 µM, first compound 3.16 µM
[12] = second compound 0.0316 µM, first compound 10 µM
[13] = second compound 0.1 µM, first compound 0.0316 µM
[14] = second compound 0.1 µM, first compound 0.1 µM
[15] = second compound 0.1 µM, first compound 0.316 µM
[16] = second compound 0.1 µM, first compound 1 µM
[17] = second compound 0.1 µM, first compound 3.16 µM
[18] = second compound 0.1 µM, first compound 10 µM
[19] = second compound 0.316 µM, first compound 0.0316 µM
[20] = second compound 0.316 µM, first compound 0.1 µM
[21] = second compound 0.316 µM, first compound 0.316 µM
[22] = second compound 0.316 µM, first compound 1 µM
[23] = second compound 0.316 µM, first compound 3.16 µM
[24] = second compound 0.316 µM, first compound 10 µM
[25] = second compound 1 µM, first compound 0.0316 µM
[26] = second compound 1 µM, first compound 0.1 µM
[27] = second compound 1 µM, first compound 0.316 µM
[28] = second compound 1 µM, first compound 1 µM
[29] = second compound 1 µM, first compound 3.16 µM
[30] = second compound 1 µM, first compound 10 µM

`CC1(C)CCC(CN2CCN(c3ccc(C(=O)NS(=O)(=O)c4ccc(NCC5CCOCC5)c([N+](=O)[O-])c4)c(Oc4cnc5[nH]ccc5c4)c3)CC2)=C(c2ccc(Cl)cc2)C1` + CCN1CCN(Cc2ccc(Nc3ncc(F)c(-c4cc(F)c5nc(C)n(C(C)C)c5c4)n3)nc2)CC1 was tested. Which IC50 (second compound 0.01 µM) did it give?
The IC50 was 5850 nM.

And the IC50 (second compound 0.0316 µM)?
Its IC50 is 5150 nM.

What about the IC50 (second compound 0.1 µM) of the same compound?
The IC50 was 4260 nM.

And the IC50 (second compound 0.316 µM)?
The IC50 was less than 31.6 nM.

And the IC50 (second compound 1 µM)?
The IC50 was 3220 nM.

What about the viability, T/C [1] of the same compound?
The viability, T/C was 102%.

What about the viability, T/C [2] of the same compound?
Its viability, T/C is 97.5%.

What about the viability, T/C [3] of the same compound?
Its viability, T/C is 100%.

What about the viability, T/C [4] of the same compound?
Its viability, T/C is 101%.

And the viability, T/C [5]?
Its viability, T/C is 94.8%.

And the viability, T/C [6]?
The viability, T/C was 11%.

And the viability, T/C [7]?
Its viability, T/C is 86.7%.

What about the viability, T/C [8] of the same compound?
Its viability, T/C is 81.8%.

What about the viability, T/C [9] of the same compound?
Its viability, T/C is 82.2%.

What about the viability, T/C [10] of the same compound?
Its viability, T/C is 83.2%.

What about the viability, T/C [11] of the same compound?
The viability, T/C was 78.6%.

And the viability, T/C [12]?
Its viability, T/C is 11.2%.

What about the viability, T/C [13] of the same compound?
Its viability, T/C is 64.2%.

And the viability, T/C [14]?
The viability, T/C was 66.6%.

And the viability, T/C [15]?
Its viability, T/C is 63.9%.

And the viability, T/C [16]?
The viability, T/C was 65%.

And the viability, T/C [17]?
The viability, T/C was 66.4%.

What about the viability, T/C [18] of the same compound?
The viability, T/C was 6.54%.

And the viability, T/C [19]?
The viability, T/C was 50.5%.

And the viability, T/C [20]?
Its viability, T/C is 50.4%.

And the viability, T/C [21]?
Its viability, T/C is 48.2%.

What about the viability, T/C [22] of the same compound?
The viability, T/C was 47.9%.

And the viability, T/C [23]?
The viability, T/C was 44.8%.

What about the viability, T/C [24] of the same compound?
The viability, T/C was 7.02%.

And the viability, T/C [25]?
Its viability, T/C is 48.2%.

And the viability, T/C [26]?
Its viability, T/C is 52.7%.

What about the viability, T/C [27] of the same compound?
Its viability, T/C is 52.9%.

What about the viability, T/C [28] of the same compound?
The viability, T/C was 53.4%.

And the viability, T/C [29]?
Its viability, T/C is 50.7%.

What about the viability, T/C [30] of the same compound?
The viability, T/C was 7.14%.

Which results are given for `CCCS(=O)(=O)Nc1ccc(F)c(C(=O)c2c[nH]c3ncc(-c4ccc(Cl)cc4)cc23)c1F` + CCN1CCN(Cc2ccc(Nc3ncc(F)c(-c4cc(F)c5nc(C)n(C(C)C)c5c4)n3)nc2)CC1?
IC50 (second compound 0.01 µM): 6840 nM; IC50 (second compound 0.0316 µM): 4640 nM; IC50 (second compound 0.1 µM): 2900 nM; IC50 (second compound 0.316 µM): 887 nM; IC50 (second compound 1 µM): 550 nM; viability, T/C [1]: 105%; viability, T/C [2]: 104%; viability, T/C [3]: 110%; viability, T/C [4]: 93.9%; viability, T/C [5]: 70.5%; viability, T/C [6]: 40.1%; viability, T/C [7]: 82.9%; viability, T/C [8]: 87.4%; viability, T/C [9]: 86.4%; viability, T/C [10]: 80.2%; viability, T/C [11]: 57.6%; viability, T/C [12]: 34.9%; viability, T/C [13]: 70.5%; viability, T/C [14]: 66.4%; viability, T/C [15]: 66.6%; viability, T/C [16]: 62.8%; viability, T/C [17]: 48.8%; viability, T/C [18]: 32.9%; viability, T/C [19]: 52.8%; viability, T/C [20]: 53.5%; viability, T/C [21]: 51%; viability, T/C [22]: 47.8%; viability, T/C [23]: 44.3%; viability, T/C [24]: 23.4%; viability, T/C [25]: 51.9%; viability, T/C [26]: 55%; viability, T/C [27]: 53.1%; viability, T/C [28]: 45.6%; viability, T/C [29]: 43.8%; viability, T/C [30]: 32.6%

For `Cn1cnc2c(F)c(Nc3ccc(Br)cc3Cl)c(C(=O)NOCCO)cc21` + CCN1CCN(Cc2ccc(Nc3ncc(F)c(-c4cc(F)c5nc(C)n(C(C)C)c5c4)n3)nc2)CC1, which IC50 (second compound 0.01 µM) is on record?
The IC50 was 34.1 nM.

What about the IC50 (second compound 0.0316 µM) of the same compound?
Its IC50 is less than 9.49 nM.

And the IC50 (second compound 0.1 µM)?
The IC50 was less than 9.49 nM.

And the IC50 (second compound 0.316 µM)?
Its IC50 is less than 9.49 nM.

And the IC50 (second compound 1 µM)?
The IC50 was less than 9.49 nM.

And the viability, T/C (second compound 0.01 µM, first compound 0.00949 µM)?
Its viability, T/C is 54.5%.

And the viability, T/C (second compound 0.01 µM, first compound 0.03 µM)?
The viability, T/C was 53.4%.

And the viability, T/C (second compound 0.01 µM, first compound 0.0949 µM)?
Its viability, T/C is 42.8%.

And the viability, T/C (second compound 0.01 µM, first compound 0.3 µM)?
The viability, T/C was 36.9%.

What about the viability, T/C (second compound 0.01 µM, first compound 0.949 µM) of the same compound?
Its viability, T/C is 32.3%.

What about the viability, T/C (second compound 0.01 µM, first compound 3 µM) of the same compound?
Its viability, T/C is 20.4%.

And the viability, T/C (second compound 0.0316 µM, first compound 0.00949 µM)?
Its viability, T/C is 46.3%.

And the viability, T/C (second compound 0.0316 µM, first compound 0.03 µM)?
The viability, T/C was 40.9%.

And the viability, T/C (second compound 0.0316 µM, first compound 0.0949 µM)?
Its viability, T/C is 35.9%.

And the viability, T/C (second compound 0.0316 µM, first compound 0.3 µM)?
The viability, T/C was 30.9%.

What about the viability, T/C (second compound 0.0316 µM, first compound 0.949 µM) of the same compound?
Its viability, T/C is 25.5%.

What about the viability, T/C (second compound 0.0316 µM, first compound 3 µM) of the same compound?
Its viability, T/C is 13.3%.

And the viability, T/C (second compound 0.1 µM, first compound 0.00949 µM)?
The viability, T/C was 36.9%.

And the viability, T/C (second compound 0.1 µM, first compound 0.03 µM)?
Its viability, T/C is 30.1%.

What about the viability, T/C (second compound 0.1 µM, first compound 0.0949 µM) of the same compound?
The viability, T/C was 29.6%.

What about the viability, T/C (second compound 0.1 µM, first compound 0.3 µM) of the same compound?
The viability, T/C was 25.4%.

And the viability, T/C (second compound 0.1 µM, first compound 0.949 µM)?
The viability, T/C was 19.2%.

What about the viability, T/C (second compound 0.1 µM, first compound 3 µM) of the same compound?
The viability, T/C was 12.2%.

And the viability, T/C (second compound 0.316 µM, first compound 0.00949 µM)?
The viability, T/C was 28.2%.

What about the viability, T/C (second compound 0.316 µM, first compound 0.03 µM) of the same compound?
The viability, T/C was 27%.

What about the viability, T/C (second compound 0.316 µM, first compound 0.0949 µM) of the same compound?
Its viability, T/C is 22%.

What about the viability, T/C (second compound 0.316 µM, first compound 0.3 µM) of the same compound?
Its viability, T/C is 19.2%.

And the viability, T/C (second compound 0.316 µM, first compound 0.949 µM)?
Its viability, T/C is 16.1%.

And the viability, T/C (second compound 0.316 µM, first compound 3 µM)?
The viability, T/C was 9.49%.

What about the viability, T/C (second compound 1 µM, first compound 0.00949 µM) of the same compound?
Its viability, T/C is 28.7%.

And the viability, T/C (second compound 1 µM, first compound 0.03 µM)?
Its viability, T/C is 25.3%.

What about the viability, T/C (second compound 1 µM, first compound 0.0949 µM) of the same compound?
The viability, T/C was 20.1%.

And the viability, T/C (second compound 1 µM, first compound 0.3 µM)?
The viability, T/C was 17.4%.

And the viability, T/C (second compound 1 µM, first compound 0.949 µM)?
The viability, T/C was 14.9%.

What about the viability, T/C (second compound 1 µM, first compound 3 µM) of the same compound?
The viability, T/C was 10.7%.

From PubChem BioAssay AID2060328 (Molecular Pharmacology Branch, DTP, NCI, 2025)
